Reference: patent US8415374B2, “Combinations of hepatitis C virus inhibitors” (Bristol-Myers Squibb Company, priority 2009, dated 2013)
Several values for one entry are separate records, joined by “and”; a condition that tells them apart may be missing. Identical values can stand only once. Like-named read-outs stand apart in the source and are kept apart here.

Assays:
Type in all cases: cell-based, Hepatitis C virus
[1] = system: genotype 1a HCV replicon cells; assay: HCV replicon luciferase assay, genotype 1a (monotherapy and combination studies); settings: genotype 1a replicon, monotherapy, 3 days
[2] = system: genotype 1b HCV replicon cells; assay: HCV replicon luciferase assay, genotype 1b (monotherapy and combination studies)
Method: (§1) The Huh-7 cell-line used for these studies was obtained from Dr. Ralf Bartenschlager (University of Heidelberg, Heidelberg, Germany) and was propagated in DMEM containing 10% FBS, 10 U/ml penicillin and 10 μg/ml streptomycin. The HCV replicons used in these studies were generated at Bristol-Myers Squibb using the procedure described in WO2004014852. The coding sequence of the published genotype 1b HCV replicon (Lohmann, V., F. Korner, J.-O. Koch, U. Herian, L. Theilmann, and R. Bartenschlager 1999, Science 285:110-113) was synthesized by Operon Technologies, Inc. (Alameda, Calif.) using the sequence set forth in EMBL Accession No. AJ242652, nucleotides 1801 to 7758. The functional replicon was then assembled in plasmid pGem9zf(+) (Promega, Madison, Wis.) using standard molecular biology techniques. To create a replicon encoding a luciferase reporter, the gene encoding humanized Renilla Luciferase protein was introduced upstream of the neomycin phosphotransferase gene. The resulting replicon consists of (i) the HCV 5′ UTR fused to the first 12 amino acids of the capsid protein, (ii) the renilla luciferase gene, (iii) the neomycin phosphotransferase gene (neo), (iv) the IRES from encephalomyocarditis virus (EMCV), and (v) HCV NS3 to NS5B genes and the HCV 3′ UTR.
(§2) HCV replicon cell lines were isolated from colonies as described by Lohman, et. al (Lohmann, V., F. Korner, J.-O. Koch, U. Herian, L. Theilmann, and R. Bartenschlager 1999, Science 285:110-113) and used for all experiments. Briefly, replicon clones were linearized with ScaI and RNA transcripts synthesized in vitro using the T7 MegaScript transcription kit (Ambion, Austin, Tex.) according to manufacturer's directions. Ten to 20 μg of in vitro transcribed replicon RNA was introduced into 4−5×10^6 Huh-7 cells by transfection with DMRIE-C reagent (Invitrogen Corporation, Carlsbad, Calif.) following manufacturer's protocols. After 24 h, selective media containing 0.5 mg/mL Geneticin (G418, Gibco-BRL, Rockville, Md.) was added and media was changed every 3 to 5 days. After approximately 4 weeks, cells were expanded for further analysis. Cells were maintained at 37° C. in DMEM (Gibco-BRL, Rockville, Md.) with 10% heat inactivated calf serum (Sigma), penicillin/streptomycin, and 0.5 mg/ml G418.
(§3) To determine compound efficacy, HCV replicon cells were plated at a density of 10^4 per well in 96-well plates in DMEM media containing 10% FBS. Following incubation overnight, compounds serially diluted in DMSO, or DMSO alone, were added to individual wells to a final DMSO concentration of 0.5%. Cell plates were then incubated at 37° C. for 3 days prior to assaying for cytotoxicity and HCV inhibition. Cell viability was measured using an Alamar blue assay and CC50 values were calculated using the median effect equation.
(§4) Plates were then washed two times with PBS and renilla luciferase activity assayed using a Dual-Glo Luciferase Assay System (Promega Corporation, Madison, Wis.) according to the manufacturer's directions. Plates were read on a TopCount NXT Microplate Scintillation and Luminescence Counter (Packard Instrument Company). The 50% effective concentration (EC50) was calculated by using Excel Fit (Version 2.0, Build 30). Known x (compound concentration) and y (% relative to DMSO-only control wells) values were used to calculate the EC50 with Excel Fit equation 205, represented as y=A+((B−A)/(1+((C/x)^D))), where A and B equal the bottom and top plateaus of the curve, respectively, C equals the x value at the middle of the curve, and D equals the slope factor.
(§5) For inhibitor combination studies, IFN-α and inhibitors of HCV NS5A and the NS3 protease were each tested at eleven concentrations. Stock solutions, 200 times the desired final assay concentration, were prepared by 3-fold dilution in DMSO prior to addition to cells/media. The compounds were tested as monotherapies and in combinations with the compound of formula (I) at various concentration ratios.

HCV replicon [3] = assay: HCV replicon luciferase assay, triple combinations with lambda interferons (genotype not stated)
Method: as §1, §2, §3, §4, §5

HCV replicon [4] = assay: as above; settings: monotherapy (Table 6)

Compound: COC(=O)N[C@H](C(=O)N1CCC[C@H]1c1ncc(-c2ccc(-c3ccc(-c4cnc([C@@H]5CCCN5C(=O)[C@@H](NC(=O)OC)C(C)C)[nH]4)cc3)cc2)[nH]1)C(C)C [NS5A inhibitor of formula (I)]
- EC50 ([1]; Hepatitis C virus, 72 h, read-out: NS5A Inhibitor EC50): 0.037 nM
- EC50 ([1]; read-out: NS5A Inhibitor EC50): 0.045 nM
- EC50 ([2]; Hepatitis C virus, 72 h, genotype 1b replicon, monotherapy, 3 days (Table 3), read-out: NS5A Inhibitor EC50): 0.003 nM
- EC50 ([2]; Hepatitis C virus, genotype 1b replicon cells, monotherapy (Table 4), read-out: NS5A Inhibitor EC50): 0.005 nM
- EC50 ([2]; genotype 1b replicon cells, monotherapy (Table 4), read-out: NS5A Inhibitor EC50): 0.006 nM
- EC50 (HCV replicon [3]; Hepatitis C virus, monotherapy (Table 5), read-out: NS5A Inhibitor EC50): 0.003 nM
- EC50 (HCV replicon [3]; Hepatitis C virus, monotherapy (Table 6), read-out: NS5A Inhibitor EC50): 0.008 nM
- EC50 (HCV replicon [3]; monotherapy (Table 5), read-out: NS5A Inhibitor EC50): 0.004 nM
- EC50 (HCV replicon [3]; monotherapy (Table 6), read-out: NS5A Inhibitor EC50): 0.009 nM and 0.005 nM

Compound: C=C[C@@H]1C[C@]1(NC(=O)[C@@H]1C[C@@H](Oc2ncc(OC)c3ccc(Cl)cc23)CN1C(=O)[C@@H](NC(=O)OC(C)(C)C)C(C)(C)C)C(=O)NS(=O)(=O)C1CC1 [NS3 protease inhibitor of formula (II)]
- EC50 ([1]; Hepatitis C virus, 72 h, read-out: NS3 Protease Inhibitor EC50): 7.8 nM
- EC50 ([1]; read-out: NS3 Protease Inhibitor EC50): 8.5 nM
- EC50 ([2]; Hepatitis C virus, 72 h, genotype 1b replicon, monotherapy, 3 days (Table 3), read-out: NS3 Protease Inhibitor EC50): 0.5 nM
- EC50 ([2]; Hepatitis C virus, genotype 1b replicon cells, monotherapy (Table 4), read-out: NS3 Protease Inhibitor EC50): 1.3 nM
- EC50 ([2]; genotype 1b replicon cells, monotherapy (Table 4), read-out: NS3 Protease Inhibitor EC50): 2.2 nM and 1.9 nM and 1.5 nM
- EC50 ([2]; genotype 1b replicon, monotherapy, 3 days (Table 3), read-out: NS3 Protease Inhibitor EC50): 0.6 nM
- EC50 (HCV replicon [3]; Hepatitis C virus, monotherapy (Table 5), read-out: NS3 Protease Inhibitor EC50): 0.63 nM
- EC50 (HCV replicon [3]; Hepatitis C virus, monotherapy (Table 6), read-out: NS3 Protease Inhibitor EC50): 1.4 nM
- EC50 (HCV replicon [3]; monotherapy (Table 5), read-out: NS3 Protease Inhibitor EC50): 0.947 nM and 1.1 nM
- EC50 (HCV replicon [3]; monotherapy (Table 6), read-out: NS3 Protease Inhibitor EC50): 1.2 nM and 2.3 nM

Compound: rIFNλ1: Recombinant IL-29 expressed in E. coli as a modified N-terminal methionylated form of human IL-29
- rIFNλ1 EC50 (HCV replicon [4]): 0.52 ng/mL and 0.27 ng/mL and 0.53 ng/mL
